The structures appear in SMILES notation.

For this assay, the target named is Acetylcholinesterase (Homo sapiens) (UniProt P22303). Description: Inhibitory activity against acetylcholinesterase compared to the IC50 of (-)-9M-HTH.
Chain of Acetylcholinesterase (Homo sapiens) (P22303 whole entry): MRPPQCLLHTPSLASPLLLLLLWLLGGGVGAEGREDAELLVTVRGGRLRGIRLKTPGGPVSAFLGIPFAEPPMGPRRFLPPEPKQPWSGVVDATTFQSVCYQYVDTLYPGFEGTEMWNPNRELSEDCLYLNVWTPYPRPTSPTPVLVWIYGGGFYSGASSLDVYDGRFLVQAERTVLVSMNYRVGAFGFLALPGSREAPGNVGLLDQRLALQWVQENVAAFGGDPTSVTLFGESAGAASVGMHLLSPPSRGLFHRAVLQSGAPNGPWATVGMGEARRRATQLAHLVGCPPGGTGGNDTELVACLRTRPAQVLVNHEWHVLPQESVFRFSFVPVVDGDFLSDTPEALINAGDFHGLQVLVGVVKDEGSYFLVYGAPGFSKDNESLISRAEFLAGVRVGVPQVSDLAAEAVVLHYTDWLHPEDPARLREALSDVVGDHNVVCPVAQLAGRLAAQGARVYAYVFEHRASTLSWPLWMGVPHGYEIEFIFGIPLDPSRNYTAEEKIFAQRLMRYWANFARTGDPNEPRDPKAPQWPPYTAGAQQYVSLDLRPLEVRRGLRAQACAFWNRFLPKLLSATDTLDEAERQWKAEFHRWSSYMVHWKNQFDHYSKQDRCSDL

`CC1=C[C@@H]2Cc3nc4cc(F)ccc4c(N)c3[C@H](C1)C2` came in with a Fold IC50 of 15.

Values taken from ChEMBL document CHEMBL1132534, “Predicting relative binding free energies of tacrine-huperzine A hybrids as inhibitors of acetylcholinesterase” (J Med Chem, 1999).
